Legend:
circulating lymphocytes = assay: Measuring effects on lymphocytes in mice; format: in vivo
Method: Unless otherwise indicated, the term “circulating lymphocyte reduction factor” or “CLRF” means the decrease in the number of circulating lymphocytes in mice caused by oral administration of a single dose of a compound at 100 mg/kg, as determined by the method described in the Examples, below.
Compounds were administered by oral gavage or in drinking water. For oral dosing experiments, compounds were resuspended from crystals at 10 mg/ml in vehicle (e.g., water). Mice (F1 hybrids of 129/B6 strain) were gavaged with a single 100 mg/kg dose of compound (equivalent to 100 mpk of the free base for each compound) or a vehicle-only control, and returned to their cages. Mice were anesthetized using isofluorane eighteen hours after dosing and tissues were collected for analysis as described below. For drinking water studies, compounds were dissolved at 50 mg/L in acidified water (pH=2.8) containing 10 g/L glucose. The mice were allowed free access to compound-containing water (or glucose solution as a control) for 72 hours. At the end of 72 hours, tissues were collected for analysis.
CBC measurements were obtained as follows. Mice were anesthetized with isofluorane and blood was collected from the retroorbital plexus into EDTA blood collection tubes (Capiject-MQK, Terumo Medical Corp., Elkton, Md.). […]

[1] = tested on: lymphocytes / mature T cells; conditions: administration to rats and mice; cited from earlier work
S1P lyase = target: T1, S1P lyase (Mus musculus, UniProt Q8R0X7); conditions: when administered to mice; cited from earlier work
T1 construct: host or cells: mice (in vivo, endogenous enzyme)
T1 sequence (Q8R0X7 1-568): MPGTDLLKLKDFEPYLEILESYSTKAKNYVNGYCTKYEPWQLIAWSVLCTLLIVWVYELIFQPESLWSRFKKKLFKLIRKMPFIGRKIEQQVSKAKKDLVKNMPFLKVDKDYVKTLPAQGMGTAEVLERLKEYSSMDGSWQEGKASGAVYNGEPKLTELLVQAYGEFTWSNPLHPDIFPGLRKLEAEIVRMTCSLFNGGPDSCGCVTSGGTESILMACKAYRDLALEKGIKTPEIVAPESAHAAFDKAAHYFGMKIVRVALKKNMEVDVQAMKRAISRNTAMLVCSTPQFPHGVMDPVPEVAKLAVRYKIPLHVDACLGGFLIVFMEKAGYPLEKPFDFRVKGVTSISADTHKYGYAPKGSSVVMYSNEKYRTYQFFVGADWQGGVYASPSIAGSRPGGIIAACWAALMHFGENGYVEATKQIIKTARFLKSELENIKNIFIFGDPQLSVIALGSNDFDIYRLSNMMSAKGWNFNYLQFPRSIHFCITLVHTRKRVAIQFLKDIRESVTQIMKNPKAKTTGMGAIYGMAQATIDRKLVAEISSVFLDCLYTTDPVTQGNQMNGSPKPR

immunological effects = conditions: studies in humans; cited from earlier work

Compound | effect on circulating lymphocytes (circulating lymphocytes) | accumulation of mature T cells in the thymus [1] | lymphopenia [1] | S1P lyase activity (S1P lyase) | immunological effects (immunological effects)
CC(=O)c1nc(C)c([C@@H](O)[C@H](O)[C@H](O)CO)s1 [1-(4-methyl-5-((1S,2R,3R)-1,2,3,4-tetrahydroxybutyl)thiazol-2-yl)ethanone] | little or no effect | – | – | – | –
CC(=O)c1nc(C(O)C(O)C(O)CO)c[nH]1 (stereo not drawn) [THI, 2-acetyl-4-tetrahydroxybutylimidazole] | capable of reducing circulating lymphocytes | causes the accumulation of mature T cells in the thymus | induces lymphopenia | inhibits S1P lyase activity | no immunological effects

Reference: patent US7598280B2, “Heterocyclic compounds, compositions comprising them and methods of their use” (Lexicon Pharmaceuticals, Inc., priority 2007, dated 2009)
